Tested on: Mpl-expressing Ba/F3 cell line (human mpl gene)
Experiment: Measurement of thrombopoietin (TPO) activity: viable cell count of Mpl-expressing Ba/F3 cell line (Cell Count Reagent SF, absorbance 450 nm)
Format: cell-based
Conditions: for Concentration: concentration corresponding to the maximum TPO activity value; for TPO activity: maximum TPO activity value, ODt/ODs×100 relative to maximum reaction of human TPO, Mpl-expressing Ba/F3 cells cultured at 37° C. for one day, at the concentration given
Experimental: The TPO activities of the compounds of the invention obtained in the aforementioned examples were measured by the procedure described below, for evaluation of their thrombopoietic effects.
Establishment of Mpl-expressing Ba/F3 Cell Line
The human mpl gene was cloned from cDNAs of the human erythroleukemia cell line HEL by PCR, and was incorporated into pCOS1 to construct an expression vector. The expression vector was transfected into Ba/F3 cells by electroporation method, and an Mpl-expressing Ba/F3 clone was established.
Measurement of Thrombopoietin (TPO) Activity
The cytokine-eliminated Mpl-expressing Ba/F3 line was plated in a 96-well plate at 25,000 cells/well. DMSO solutions containing the compounds obtained in each of the examples were then prepared to different specified concentration ranges, and each solution was added to the Mpl-expressing Ba/F3 cell line (final DMSO concentration: ≦0.1%), and the cell were cultured at 37° C. for one day. Human TPO (by R&D Systems or Genzyme) was used as a positive control.
Each of the cultured Mpl-expressing Ba/F3 cell lines was subjected to absorbance measurement at a wavelength of 450 nm (reference wavelength: 620 nm), corresponding to the viable cell count, using Cell Count Reagent SF (by Nacalai Tesque Inc.). The TPO activity of each compound for the Mpl-expressing Ba/F3 cell line was determined based on the following formula. TPO activity (%)=ODt/ODs×100
ODs: Absorbance at maximum reaction of human TPO (wavelength: 450-620 nm).
ODt: Absorbance of test solution (wavelength: 450-620 nm).
Tables 1 and 2 show the maximum TPO activity values and the corresponding concentrations of each compound, as obtained by the test described above.

| Structure (SMILES) | Concentration [µM] | TPO activity [%] |
| --- | --- | --- |
| Cc1[nH]c2ccccc2c1CC(=O)N[C@@H](CCCCN(C)C)C(=O)Nc1ccc(C(c2ccc(NC(=O)[C@H](CCCCN(C)C)NC(=O)Cc3c(C)[nH]c4ccccc34)cc2)c2ccc(NC(=O)[C@H](CCCCN(C)C)NC(=O)Cc3c(C)[nH]c4ccccc34)cc2)cc1 [Example 30, tris[4-[N-α-[2-(2-methyl-1H-indol-3-yl)acetyl]-N-ε-dimethyl-L-lysyl]aminophenyl]methane] | 25 | 108 |
| CCc1[nH]c2ccccc2c1CC(=O)N[C@H](CCCCN)C(=O)Nc1ccc(C(c2ccc(NC(=O)[C@@H](CCCCN)NC(=O)Cc3c(CC)[nH]c4ccccc34)cc2)c2ccc(NC(=O)[C@@H](CCCCN)NC(=O)Cc3c(CC)[nH]c4ccccc34)cc2)cc1.Cl [Example 148, tris[4-[N-α-[2-(2-ethyl-1H-indol-3-yl)acetyl]-D-lysyl]aminophenyl]methane hydrochloride] | 25 | 73.6 |
| COc1ccc2[nH]c(C)c(CC(=O)N[C@@H](CCCCN(C)C)C(=O)Nc3ccc(C(c4ccc(NC(=O)[C@H](CCCCN(C)C)NC(=O)Cc5c(C)[nH]c6ccc(OC)cc56)cc4)c4ccc(NC(=O)[C@H](CCCCN(C)C)NC(=O)Cc5c(C)[nH]c6ccc(OC)cc56)cc4)cc3)c2c1 [Example 31] | 25 | 96.4 |
| NCCCC[C@@H](NC(=O)c1cccc2cc(O)ccc12)C(=O)Nc1ccc(C(c2ccc(NC(=O)[C@@H](CCCCN)NC(=O)c3cccc4cc(O)ccc34)cc2)c2ccc(NC(=O)[C@@H](CCCCN)NC(=O)c3cccc4cc(O)ccc34)cc2)cc1.O=C(O)C(F)(F)F [Example 192, tris[4-[N-α-(6-hydroxynaphthalen-1-yl)carbonyl-D-lysyl]aminophenyl]methane trifluoroacetate] | 25 | 71.3 |
| NCCCC[C@@H](NC(=O)c1cccc(O)c1)C(=O)Nc1ccc(C(c2ccc(NC(=O)[C@@H](CCCCN)NC(=O)c3cccc(O)c3)cc2)c2ccc(NC(=O)[C@@H](CCCCN)NC(=O)c3cccc(O)c3)cc2)cc1.O=C(O)C(F)(F)F [Example 186, tris[4-[N-α-(3-hydroxybenzoyl)-D-lysyl]aminophenyl]methane trifluoroacetate] | 25 | 35.8 |
| Cc1[nH]c2ccccc2c1CC(=O)N[C@@H](CCN)C(=O)Nc1ccc(C(c2ccc(NC(=O)[C@H](CCN)NC(=O)Cc3c(C)[nH]c4ccccc34)cc2)c2ccc(NC(=O)[C@H](CCN)NC(=O)Cc3c(C)[nH]c4ccccc34)cc2)cc1.O=C(O)C(F)(F)F [Example 132, tris[4-[β-aminomethyl-N-[2-(2-methyl-1H-indol-3-yl)acetyl]-L-alanyl]aminophenyl]methane trifluoroacetate] | 50 | 22.3 |
| Cl.NCCCC[C@@H](NC(=O)c1cc2cc(O)ccc2[nH]1)C(=O)Nc1ccc(C(c2ccc(NC(=O)[C@@H](CCCCN)NC(=O)c3cc4cc(O)ccc4[nH]3)cc2)c2ccc(NC(=O)[C@@H](CCCCN)NC(=O)c3cc4cc(O)ccc4[nH]3)cc2)cc1 [Example 151, tris[4-[N-α-(5-hydroxy-1H-indol-2-yl)carbonyl-D-lysyl]aminophenyl]methane hydrochloride] | 50 | 90.8 |
| CN(C)CCCC[C@H](NC(=O)Cc1ccsc1)C(=O)Nc1ccc(C(c2ccc(NC(=O)[C@H](CCCCN(C)C)NC(=O)Cc3ccsc3)cc2)c2ccc(NC(=O)[C@H](CCCCN(C)C)NC(=O)Cc3ccsc3)cc2)cc1 [Example 32, tris[4-[N-α-[2-(thiophen-3-yl)acetyl]-N-ε-dimethyl-L-lysyl]aminophenyl]methane] | 25 | 87.1 |
| COc1ccc2[nH]c(C)c(CC(=O)N[C@@H](CCN)C(=O)Nc3ccc(C(c4ccc(NC(=O)[C@H](CCN)NC(=O)Cc5c(C)[nH]c6ccc(OC)cc56)cc4)c4ccc(NC(=O)[C@H](CCN)NC(=O)Cc5c(C)[nH]c6ccc(OC)cc56)cc4)cc3)c2c1.O=C(O)C(F)(F)F [Example 133, tris[4-[β-aminomethyl-N-[2-(5-methoxy-2-methyl-1H-indol-3-yl)acetyl]-L-alanyl]aminophenyl]methane trifluoroacetate] | 50 | 89.6 |
| Cl.NCCCC[C@@H](NC(=O)[C@H](N)Cc1c[nH]c2ccccc12)C(=O)Nc1ccc(C(c2ccc(NC(=O)[C@@H](CCCCN)NC(=O)[C@H](N)Cc3c[nH]c4ccccc34)cc2)c2ccc(NC(=O)[C@@H](CCCCN)NC(=O)[C@H](N)Cc3c[nH]c4ccccc34)cc2)cc1 [Example 161, tris[4-[N-α-(D-tryptophyl)-D-lysyl]aminophenyl]methane hydrochloride] | 25 | 65.6 |
| Cl.NCCCC[C@@H](NC(=O)Cc1cccc(O)c1)C(=O)Nc1ccc(C(c2ccc(NC(=O)[C@@H](CCCCN)NC(=O)Cc3cccc(O)c3)cc2)c2ccc(NC(=O)[C@@H](CCCCN)NC(=O)Cc3cccc(O)c3)cc2)cc1 [Example 159, tris[4-[N-α-[2-(3-hydroxyphenyl)acetyl]-D-lysyl]aminophenyl]methane hydrochloride] | 25 | 18.6 |
| NCC[C@H](NC(=O)Cc1c[nH]c2ccccc12)C(=O)Nc1ccc(C(c2ccc(NC(=O)[C@H](CCN)NC(=O)Cc3c[nH]c4ccccc34)cc2)c2ccc(NC(=O)[C@H](CCN)NC(=O)Cc3c[nH]c4ccccc34)cc2)cc1.O=C(O)C(F)(F)F [Example 131, tris[4-[β-aminomethyl-N-[2-(1H-indol-3-yl)acetyl]-L-alanyl]aminophenyl]methane trifluoroacetate] | 50 | 88.0 |
| Cl.NCCCSC[C@H](NC(=O)Cc1c[nH]c2ccccc12)C(=O)Nc1ccc(C(c2ccc(NC(=O)[C@H](CSCCCN)NC(=O)Cc3c[nH]c4ccccc34)cc2)c2ccc(NC(=O)[C@H](CSCCCN)NC(=O)Cc3c[nH]c4ccccc34)cc2)cc1 [Example 33, tris[4-[N-[2-(1H-indol-3-yl)acetyl]-S-(3-aminopropyl)-L-cystyl]aminophenyl]methane hydrochloride] | 50 | 17.4 |
| NCCCC[C@@H](NC(=O)Cc1ccc(O)c(O)c1)C(=O)Nc1ccc(C(c2ccc(NC(=O)[C@@H](CCCCN)NC(=O)Cc3ccc(O)c(O)c3)cc2)c2ccc(NC(=O)[C@@H](CCCCN)NC(=O)Cc3ccc(O)c(O)c3)cc2)cc1.O=C(O)C(F)(F)F [Example 188, tris[4-[N-α-[2-(3,4-dihydroxyphenyl)acetyl]-D-lysyl]aminophenyl]methane trifluoroacetate] | 100 | 10.1 |
| Cc1[nH]c2ccccc2c1CC(=O)N[C@H](CCCNC(=N)N)C(=O)Nc1ccc(C(c2ccc(NC(=O)[C@@H](CCCNC(=N)N)NC(=O)Cc3c(C)[nH]c4ccccc34)cc2)c2ccc(NC(=O)[C@@H](CCCNC(=N)N)NC(=O)Cc3c(C)[nH]c4ccccc34)cc2)cc1.Cl (stereo partly drawn) [Example 39, tris[4-[N-α-[2-(2-methyl-1H-indol-3-yl)acetyl]-D-arginyl]aminophenyl]methane hydrochloride] | 12.5 | 80.4 |
| COc1ccc2c(CC(=O)N[C@H](CCCCN)C(=O)Nc3ccc(C(c4ccc(NC(=O)[C@@H](CCCCN)NC(=O)Cc5c(C)[nH]c6cc(OC)ccc56)cc4)c4ccc(NC(=O)[C@@H](CCCCN)NC(=O)Cc5c(C)[nH]c6cc(OC)ccc56)cc4)cc3)c(C)[nH]c2c1.Cl [Example 146, tris[4-[N-α-[2-(6-methoxy-2-methyl-1H-indol-3-yl)acetyl]-D-lysyl]aminophenyl]methane hydrochloride] | 25 | 83.6 |
| Cl.NCCCC[C@H](NC(=O)c1cccnc1)C(=O)Nc1ccc(C(c2ccc(NC(=O)[C@H](CCCCN)NC(=O)c3cccnc3)cc2)c2ccc(NC(=O)[C@H](CCCCN)NC(=O)c3cccnc3)cc2)cc1 [Example 17, tris[4-[N-α-(3-pyridylcarbonyl)-L-lysyl]aminophenyl]methane hydrochloride] | 50 | 16.5 |
| Cl.NCCCC[C@@H](NC(=O)c1cccc2[nH]ccc12)C(=O)Nc1ccc(C(c2ccc(NC(=O)[C@@H](CCCCN)NC(=O)c3cccc4[nH]ccc34)cc2)c2ccc(NC(=O)[C@@H](CCCCN)NC(=O)c3cccc4[nH]ccc34)cc2)cc1 [Example 152, tris[4-[N-α-(1H-indol-4-yl)carbonyl-D-lysyl]aminophenyl]methane hydrochloride] | 25 | 62.0 |
| Cl.NCCCC[C@H](NC(=O)Cc1c[nH]c2ccc(O)cc12)C(=O)Nc1ccc(C(c2ccc(NC(=O)[C@H](CCCCN)NC(=O)Cc3c[nH]c4ccc(O)cc34)cc2)c2ccc(NC(=O)[C@H](CCCCN)NC(=O)Cc3c[nH]c4ccc(O)cc34)cc2)cc1 [Example 18, tris[4-[N-α-[2-(5-hydroxy-1H-indol-3-yl)acetyl]-L-lysyl]aminophenyl]methane hydrochloride] | 50 | 46.5 |

From US6887890B2, “Compounds exhibiting thrombopoietin-like activities” (Chugai Seiyaku Kabushiki Kaisha, priority 2000, dated 2005)
